Reference: US20090298800A1, “1,25-DIHYDROXY, 20-CYCLOPROPYL,26-27-DEUTEROALKYL VITAMIN D3 COMPOUNDS AND METHODS OF USE THEREOF” (BioXell S.p.A., priority 2005, published 2009)

How the values were obtained:
IFN-γ production = IFN-γ production in the mixed leukocyte response (MLR) of allogeneic PBMC; assay type: cell-based; details: 120 h, 5 days, ELISA, read-out: INF-γ IC50
Experimental: Immature dendritic cells (DC) were prepared as described in Romani, N. et al. (Romani, N. et al. (1996) J. Immunol. Methyl. 196:137). IFN-γ production by allogeneic T cell activation in the mixed leukocyte response (MLR) was determined as described in Penna, G., et al., J Immunol., 164: 2405-2411 (2000).
Briefly, peripheral blood mononuclear cells (PBMC) were separated from buffy coats by Ficoll gradient and the same number (3×10^5) of allogeneic PBMC from 2 different donors were co-cultured in 96-well flat-bottom plates. The vitamin D3 compounds were added to each of the cultures. After 5 days, IFN-γ production in the MLR assay was measured by ELISA and the results expressed as amount (nM) of test compound required to induce 50% inhibition of IFN-γ production (IC50).

RT112 = test: Proliferation assay, bladder cancer cell line RT112; assay type: cell-based, human; details: 72 h culture, CyQuant proliferation assay
Experimental: (§1) Bladder cancer cell lines (T24, RT112, HT1376 and RT4 are human bladder cancer cell lines; NHEK are normal human keratinocytes) were obtained from the European Collection of Cell Cultures (Salisbury, UK). Cells were plated at 3×10^3 per well, in flat bottomed 96-well plates in 100 μl of DMEM medium containing: 5% Fetal Clone i, […] gentamicin, 1 mM sodium pyruvate and 1% non-essential amino acids. After culturing for 24 h at 37° C. in 5% CO2, to allow cells to adhere to the plates, VDR ligands (compounds (1)-(9)) were added at concentrations ranging from 100 μM to 0.3 μM in 100 μl of above-mentioned complete medium. After a further 72 h of culture, cell proliferation was measured using a fluorescence-based proliferation assay kit. (CyQuant Cell Proliferation Assay Kit, Molecular Probes, Eugene, Oreg., USA). The IC50 was calculated from the regression curve of the titration data.

HT 1376 = test: Proliferation assay, bladder cancer cell line HT1376; assay type: cell-based; details: Homo sapiens, 72 h culture, CyQuant proliferation assay
Experimental: as §1

RT4 = test: Proliferation assay, bladder cancer cell line RT4; assay type: cell-based, human; details: 72 h culture, CyQuant proliferation assay
Experimental: as §1

NHEK = test: Proliferation assay, normal human keratinocytes NHEK; assay type: cell-based; details: 72 h culture, CyQuant proliferation assay
Experimental: as §1

[1] = Determination of Maximum Tolerated Dose (MTD) in mice (serum calcium); assay type: in vivo; details: mouse, po; female C57BL/6 mice, p.o. daily for four days; highest dose without hypercalcemia (serum calcium>10.7 mg/dl)
Experimental: The maximum tolerated dose of the vitamin D3 compounds of the invention were determined in eight week-old female C57BL/6 mice (3 mice/group) dosed orally (0.1 ml/mouse) with various concentrations of Vitamin D3 analogs daily for four days. Analogs were formulated in miglyol for a final concentration of 0.01, 0.03, 0.1, 0.3, 1, 3, 10, 30, 100 and 300 μg/kg when given at 0.1 ml/mouse p.o. daily. Blood for serum calcium assay was drawn by tail bleed on day five, the final day of the study. Serum calcium levels were determined using a colorimetric assay (Sigma Diagnostics, procedure no. 597). The highest dose of analog tolerated without inducing hypercalcemia (serum calcium>10.7 mg/dl) was taken as the maximum tolerated dose (MTD).

Renin mRNA = Renin mRNA inhibition in murine juxtaglomerular cell line As4.1; assay type: cell-based; details: Mus musculus, As4.1 cells treated 24 h at 10^−8, 10^−9 and 10^−10 M, real time PCR normalized to β-actin, read-out: Renin mRNA inh.As4.1/wt
Experimental: As4.1 cells (80% subconfluent) were treated in complete medium with compounds of the invention at 10^−8,10^−9 and 10^−10 M for 24 h. Total RNA was extracted using RNeasy Mini kit (Qiagen); treated with DNase I (Qiagen) and Reverse Transcription Reagent (Applied Biosystems) with Random Examers were used for reverse transcription according to the manufacturers' instructions. Real Time PCR analysis was performed in multiplex using commercially available β-actin VIC-conjugated probe (cat. n. 4352341E, Applied Biosystems) and custom designed mRENIN FAM-conjugated probe (Assay by Design, Applied Biosystems; Forward: […]; Reverse: […]; Probe: FAM-[…]-MGB). Reactions were performed in a 25 μL volume containing 12.5 μl […] (Applied Biosystems), 10 ng/reaction/well cDNA, and 2.5 μM each gene-specific primer. An ABI PRISM 7700 analyzer (Applied Biosystems) was used at 50° C. for 2 minutes and 95° C. for 10 minutes, followed by 40 cycles at 95° C. for 15 seconds and 60° C. for 1 minute. Cycle threshold (Ct) values were exported onto Excel worksheets for analysis. Test cDNA results were normalized versus mouse β-actin housekeeping gene. Fold differences in gene expression between the subtracted versus the unsubtracted populations were expressed using the method of 2^−ΔΔCt. (Table 4)

SMILES: C=C1/C(=C\C=C2/CCC[C@]3(C)C([C@H](C)CCCC(C)(C)O)CC[C@@H]23)C[C@@H](O)C[C@@H]1O (stereo partly drawn) [1,25(OH)2D3, 1,25-dihydroxycholecalciferol, reference compound]
- IC50 (IFN-γ production): 0.0496 nM
- IC50 (RT112): 28.7 µM
- IC50 (RT112; Homo sapiens, RT-112, 72 h): 19 µM
- IC50 (HT 1376): 50 µM
- IC50 (RT4): 26 µM
- IC50 (RT4; Homo sapiens, RT-4, 72 h): 45 µM
- IC50 (NHEK): 4.5 µM

SMILES: [2H]C([2H])([2H])C(O)(CCCC1([C@H]2CCC3/C(=C/C=C4C[C@@H](O)C[C@H](O)C4)CCC[C@@]32C)CC1)C([2H])([2H])[2H] (stereo partly drawn) [Compound 1, 1,25-Dihydroxy-20-cyclopropyl-26,27-hexadeutero-19-nor-cholecalciferol]
- MTD at 4 days [1]: 0.03 mg/kg
- IC50 (IFN-γ production): 0.051 nM
- IC50 (RT112; Homo sapiens, RT-112): > 30 µM
- IC50 (RT4; Homo sapiens, RT-4): 11.7 µM
- IC50 (NHEK): 5.6 µM
- IC50 (Renin mRNA): 0.155 µM

SMILES: [2H]C([2H])([2H])C(O)(CCCC1([C@H]2CCC3/C(=C/C=C4C[C@@H](OC(C)=O)C[C@H](OC(C)=O)C4)CCC[C@@]32C)CC1)C([2H])([2H])[2H] (stereo partly drawn) [Compound 2, 1,3-Di-O-acetyl-1,25-dihydroxy-20-cyclopropyl-26,27-hexadeutero-19-nor-cholecalciferol]
- MTD at 4 days [1]: 0.03 mg/kg
- IC50 (IFN-γ production): 0.388 nM
- IC50 (RT112; Homo sapiens, RT-112): 16.3 µM
- IC50 (RT4; Homo sapiens, RT-4): 3.1 µM
- IC50 (NHEK): 7.2 µM
- IC50 (Renin mRNA): 0.102 µM

SMILES: [2H]C([2H])([2H])C(O)(CCCC1([C@H]2CCC3/C(=C/C=C4/C[C@@H](O)C[C@H](O)C4=C)CCC[C@@]32C)CC1)C([2H])([2H])[2H] (stereo partly drawn) [Compound 3, 1,25-Dihydroxy-20-cyclopropyl-26,27-hexadeutero-cholecalciferol]
- MTD at 4 days [1]: 0.03 mg/kg
- IC50 (IFN-γ production): 0.065 nM
- IC50 (RT112; Homo sapiens, RT-112): 19.7 µM
- IC50 (RT4; Homo sapiens, RT-4): 2.9 µM
- IC50 (NHEK): 6.6 µM
- IC50 (Renin mRNA): 0.0429 µM

SMILES: [2H]C([2H])([2H])C(O)(CCCC1([C@H]2CCC3/C(=C/C=C4/C[C@@H](OC(C)=O)C[C@H](OC(C)=O)C4=C)CCC[C@@]32C)CC1)C([2H])([2H])[2H] (stereo partly drawn) [Compound 4, 1,3-Di-O-acetyl-1,25-dihydroxy-20-cyclopropyl-26,27-hexadeutero-cholecalciferol]
- MTD at 4 days [1]: 0.03 mg/kg
- IC50 (IFN-γ production): 0.464 nM
- IC50 (RT112; Homo sapiens, RT-112): 18.7 µM
- IC50 (RT4; Homo sapiens, RT-4): 3 µM
- IC50 (NHEK): 5.6 µM
- IC50 (Renin mRNA): 0.274 µM

SMILES: [2H]C([2H])([2H])C(O)(CCCC1([C@H]2CCC3/C(=C/C=C4/C[C@@H](O)C[C@H](F)C4=C)CCC[C@@]32C)CC1)C([2H])([2H])[2H] (stereo partly drawn) [Compound 5, 1α-Fluoro-25-hydroxy-20-cyclopropyl-26,27-hexadeutero-cholecalciferol]
- MTD at 4 days [1]: 0.1 mg/kg
- IC50 (IFN-γ production): > 10 nM
- IC50 (RT112; Homo sapiens, RT-112): 15.7 µM
- IC50 (RT4; Homo sapiens, RT-4): 3.1 µM
- IC50 (NHEK): 4.7 µM

SMILES: [2H]C([2H])([2H])C(O)(CCCC1([C@H]2CCC3/C(=C/C=C4/C[C@@H](OC(C)=O)C[C@H](F)C4=C)CCC[C@@]32C)CC1)C([2H])([2H])[2H] (stereo partly drawn) [Compound 6, 3-O-acetyl-1α-fluoro-25-hydroxy-20-cyclopropyl-cholecalciferol]
- MTD at 4 days [1]: 0.03 mg/kg
- IC50 (IFN-γ production): 0.747 nM
- IC50 (RT112; Homo sapiens, RT-112): 19.7 µM
- IC50 (RT4; Homo sapiens, RT-4): 4.5 µM
- IC50 (NHEK): 5.6 µM
- IC50 (Renin mRNA): 0.00448 µM

SMILES: [2H]C([2H])([2H])C(O)(CCCC1(C2=CCC3/C(=C/C=C4/CC(O)C[C@H](O)C4)CCC[C@]23C)CC1)C([2H])([2H])[2H] (stereo partly drawn) [Compound 7, 1,25-Dihydroxy-16-ene-20 cyclopropyl-26,27-hexadeutero-19-nor-cholecalciferol]
- MTD at 4 days [1]: 0.001 mg/kg
- IC50 (IFN-γ production): 0.032 nM
- IC50 (RT112; Homo sapiens, RT-112): > 30 µM
- IC50 (RT4; Homo sapiens, RT-4): 8.9 µM
- IC50 (NHEK): > 10 µM
- IC50 (Renin mRNA): 0.00736 µM

SMILES: [2H]C([2H])([2H])C(O)(CCCC1(C2=CCC3/C(=C/C=C4/CC(O)C[C@H](O)C4=C)CCC[C@]23C)CC1)C([2H])([2H])[2H] (stereo partly drawn) [Compound 8, 1,25-Dihydroxy-16-ene-20-cyclopropyl-26,27-hexadeutero-cholecalciferol]
- MTD at 4 days [1]: 0.01 mg/kg
- IC50 (IFN-γ production): 0.063 nM
- IC50 (RT112; Homo sapiens, RT-112): ≥ 30 µM
- IC50 (RT4; Homo sapiens, RT-4): 2.4 µM
- IC50 (NHEK): 7 µM
- IC50 (Renin mRNA): 0.00489 µM

SMILES: [2H]C([2H])([2H])C(O)(CCCC1(C2=CCC3/C(=C/C=C4/CC(O)C[C@H](F)C4=C)CCC[C@]23C)CC1)C([2H])([2H])[2H] (stereo partly drawn) [Compound 9, 1α-Fluoro-25-hydroxy-16-ene-20-cyclopropyl-26,27-hexadeutero-cholecalciferol]
- MTD at 4 days [1]: 0.01 mg/kg
- IC50 (IFN-γ production): 0.492 nM
- IC50 (RT112; Homo sapiens, RT-112): ≥ 30 µM
- IC50 (RT4; Homo sapiens, RT-4): 4.3 µM
- IC50 (NHEK): 7 µM
- IC50 (Renin mRNA): 0.0128 µM
